Results from US8716281B2, “Pyrimidine compounds that inhibit anaplastic lymphoma kinase” (Amgen Inc., priority 2010, dated 2014).

target: T1, wild-type human ALK cytoplasmic domain (amino acids 1058-1620) (Homo sapiens, UniProt Q9UM73); experiment: ALK Inhibition in Enzyme Assay (Lance TR-FRET); type: biochemical; settings: 2 nM enzyme, ATP at 40 μM (Km apparent), 90 minutes, mean of three replicates; read-out: ALK IC50
T1 construct: The cytoplasmic domain (amino acids 1058-1620) of wild-type human ALK; GST (N); made in house; host or cells: SF9 insect cells
Procedure: ALK Inhibition in Enzyme Assay
Kinase activity of the purified protein was assessed using a Lance® TR-FRET assay. […] The reaction was allowed to proceed for 90 minutes at room temperature and was then terminated with 20 mM EDTA in 50 mM Tris (pH 7.5), 100 mM NaCl, 0.05% BSA, and 0.1% Tween-20. Phosphorylation of the peptide substrate was detected using the Lance® detection reagents streptavidin-allophycocyanin (SA-APC) and Eu-W1024 anti-phosphotyrosine antibody (PT66) from Perkin Elmer Life Sciences (Waltham, Mass.). The plates were read on a RUBY star plate reader (BMG LABTECH, Cary, N.C.) with an excitation wavelength of 320 nm.

T1 sequence (Q9UM73 1058-1620): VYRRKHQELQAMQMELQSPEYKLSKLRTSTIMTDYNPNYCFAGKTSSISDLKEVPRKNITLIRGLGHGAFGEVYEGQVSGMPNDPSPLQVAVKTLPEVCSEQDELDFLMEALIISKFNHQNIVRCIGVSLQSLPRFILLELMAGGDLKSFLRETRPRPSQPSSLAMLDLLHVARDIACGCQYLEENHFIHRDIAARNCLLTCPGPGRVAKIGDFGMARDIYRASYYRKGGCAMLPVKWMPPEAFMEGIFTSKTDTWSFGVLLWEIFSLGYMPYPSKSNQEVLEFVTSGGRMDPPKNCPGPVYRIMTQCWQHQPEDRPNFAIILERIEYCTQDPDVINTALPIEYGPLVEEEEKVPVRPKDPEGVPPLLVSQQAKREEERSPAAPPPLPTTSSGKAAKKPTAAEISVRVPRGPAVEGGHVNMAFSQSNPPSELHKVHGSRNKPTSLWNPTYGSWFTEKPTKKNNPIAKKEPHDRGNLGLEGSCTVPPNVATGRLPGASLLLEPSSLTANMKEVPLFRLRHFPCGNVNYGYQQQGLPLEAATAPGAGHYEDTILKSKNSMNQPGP

For `Cc1ccc(CNC(=O)[C@H]2CCCN(c3ccnc(Nc4ccc(C(=O)N(C)C)cc4)n3)C2)cc1` [Example 154, (3S)-1-(2-((4-(dimethylcarbamoyl)phenyl)amino)-4-pyrimidinyl)-N-(4-methylbenzyl)-3-piperidinecarboxamide], which IC50 is on record?
Its IC50 is 1000 to 5000 nM.

How did the IC50 turn out when `COc1cc(Nc2nccc(N3CCC[C@H](C(=O)NCc4ccc(Cl)c(Cl)c4)C3)n2)cc(OC)c1OC` [Example 65, (S)-N-(3,4-dichlorobenzyl)-1-(2-((3,4,5-trimethoxyphenyl)amino)-4-pyrimidinyl)-3-piperidinecarboxamide] was run?
The IC50 was 100 to 1000 nM.

How did the IC50 turn out when `Cc1ccc(CNC(=O)[C@H]2CCCN(c3ccnc(Nc4cccc(OC(C)C)c4)n3)C2)cc1` [Example 160, (3S)-N-(4-methylbenzyl)-1-(2-((3-(1-methylethoxy)phenyl)amino)-4-pyrimidinyl)-3-piperidinecarboxamide] was run?
Its IC50 is 100 to 1000 nM.

`COc1cc(Nc2nccc(N3CCC[C@H](C(=O)NCc4ccc(S(C)(=O)=O)cc4)C3)n2)cc(OC)c1OC` [Example 122, (S)-N-(4-(methylsulfonyl)benzyl)-1-(2-((3,4,5-trimethoxyphenyl)amino)-4-pyrimidinyl)-3-piperidinecarboxamide] was tested. Which IC50 did it give?
Its IC50 is 1000 to 5000 nM.

With `COc1cc(Nc2nccc(N3CCC[C@H](C(=O)NCc4ccc(C(C)(C)C)cc4)C3)n2)cc(OC)c1OC` [Example 70, (S)-N-(4-tert-butylbenzyl)-1-(2-((3,4,5-trimethoxyphenyl)amino)-4-pyrimidinyl)-3-piperidinecarboxamide] as the molecule, how does the IC50 read?
Its IC50 is under 50 nM.

`COc1cc(Nc2nccc(N3CCC[C@H](C(=O)NCCc4ccccc4Cl)C3)n2)cc(OC)c1OC` [Example 99, (S)-N-(2-(2-chlorophenyl)ethyl)-1-(2-((3,4,5-trimethoxyphenyl)amino)-4-pyrimidinyl)-3-piperidinecarboxamide] was tested. Which IC50 did it give?
The IC50 was 1000 to 5000 nM.

Which IC50 does the source give for `COc1cc(Nc2nccc(N3CCC[C@H](C(=O)NCc4ccc(C(F)(F)F)c(F)c4)C3)n2)cc(OC)c1OC` [Example 86, (S)-N-(3-fluoro-4-(tritluoromethyl)benzyl)-1-(2-((3,4,5-trimethoxyphenyl)amino)-4-pyrimidinyl)-3-piperidinecarboxamide] here?
Its IC50 is 100 to 1000 nM.

With `Cc1ccc(CNC(=O)[C@H]2CCCN(c3ccnc(Nc4ccc(C(C)C)cc4)n3)C2)cc1` [Example 172, (3S)-N-(4-methylbenzyl)-1-(2-((4-(1-methylethyl)phenyl)amino)-4-pyrimidinyl)-3-piperidinecarboxamide] as the molecule, how does the IC50 read?
The IC50 was 1000 to 5000 nM.

Which IC50 does the source give for `CNC(=O)c1cccc(Nc2nccc(N3CCC[C@H](C(=O)NCc4ccc(C)cc4)C3)n2)c1` [Example 168, (3S)-N-(4-methylbenzyl)-1-(2-((3-(methylcarbamoyl)phenyl)amino)-4-pyrimidinyl)-3-piperidinecarboxamide] here?
The IC50 was 1000 to 5000 nM.

How did the IC50 turn out when `CC(=O)Nc1ccc(Nc2nccc(N3CCC[C@H](C(=O)NCc4ccc(C)cc4)C3)n2)cc1` [Example 165, (3S)-1-(2-((4-(acetylamino)phenyl)amino)-4-pyrimidinyl)-N-(4-methylbenzyl)-3-piperidinecarboxamide] was run?
Its IC50 is 1000 to 5000 nM.

`COc1cc(Nc2nccc(N3CCSC(C(=O)NCc4ccc(C)cc4)C3)n2)cc(OC)c1OC` (centres unmarked) [Example 4, N-(4-Methylbenzyl)-4-(2-(3,4,5-Trimethoxy-Phenylamino)Pyrimidin-4-Yl)Thiomorpholine-2-Carboxamide] was tested. Which IC50 did it give?
Its IC50 is 1000 to 5000 nM.

For `COc1cc(Nc2nccc(N3CCC[C@H](C(=O)NCc4ccc(OC(F)F)cc4)C3)n2)cc(OC)c1OC` [Example 75, (S)-N-(4-(difluoromethoxy)benzyl)-1-(2-((3,4,5-trimethoxyphenyl)amino)-4-pyrimidinyl)-3-piperidinecarboxamide], which IC50 is on record?
The IC50 was under 50 nM.

Which IC50 does the source give for `Cc1ccc(CNC(=O)[C@H]2CCCN(c3ccnc(Nc4ccc(C#N)cc4)n3)C2)cc1` [Example 166, (3S)-1-(2-((4-cyanophenyl)amino)-4-pyrimidinyl)-N-(4-methylbenzyl)-3-piperidinecarboxamide] here?
The IC50 was 1000 to 5000 nM.

How did the IC50 turn out when `Cc1ccc(CNC(=O)[C@H]2CCCN(c3ccnc(Nc4cc(-c5ccc(C)cc5)[nH]n4)n3)C2)cc1` [Example 145, (3S)-N-(4-methylbenzyl)-1-(2-((5-(4-methylphenyl)-1H-pyrazol-3-yl)amino)-4-pyrimidinyl)-3-piperidinecarboxamide] was run?
The IC50 was 5000 to 10000 nM.

How did the IC50 turn out when `CSc1cccc(Nc2nccc(N3CCC[C@H](C(=O)NCc4ccc(C)cc4)C3)n2)c1` [Example 157, (3S)-N-(4-methylbenzyl)-1-(2-((3-(methylsulfanyl)phenyl)amino)-4-pyrimidinyl)-3-piperidinecarboxamide] was run?
Its IC50 is 100 to 1000 nM.

How did the IC50 turn out when `COc1cc(Nc2nccc(N3CCC[C@H](C(=O)NC(C)c4ccc5[nH]ccc5c4)C3)n2)cc(OC)c1OC` (stereo partly drawn) [Example 45, (S)-N-(1-(1H-indol-5-yl)ethyl)-1-(2-((3,4,5-trimethoxyphenyl)amino)-4-pyrimidinyl)-3-piperidinecarboxamide] was run?
The IC50 was 100 to 1000 nM.

How did the IC50 turn out when `COc1cc(Nc2ncc(C)c(N3CCC[C@H](C(=O)NCc4ccc(C)cc4)C3)n2)cc(OC)c1OC` [Example 8, (S)-1-(5-Methyl-2-(3,4,5-Trimethoxyphenyl-Amino)Pyrimidin-4-Yl)-N-(4-Methylbenzyl)Piperidine-3-Carboxamide] was run?
The IC50 was 1000 to 5000 nM.

Which IC50 does the source give for `COc1cc(Nc2nccc(N3CCC[C@H](C(=O)NCc4ccc(C)cc4)C3)n2)cc2c1OCCO2` [Example 146, (3S)-1-(2-((8-methoxy-2,3-dihydro-1,4-benzodioxin-6-yl)amino)-4-pyrimidinyl)-N-(4-methylbenzyl)-3-piperidinecarboxamide] here?
The IC50 was 100 to 1000 nM.

How did the IC50 turn out when `COc1cc(Nc2nccc(N3CCC[C@H](C(=O)NC[C@@H](C)c4ccccc4)C3)n2)cc(OC)c1OC` [Example 98, (S)-N-((S)-2-phenylpropyl)-1-(2-((3,4,5-trimethoxyphenyl)amino)-4-pyrimidinyl)-3-piperidinecarboxamide] was run?
The IC50 was 100 to 1000 nM.

Which IC50 does the source give for `COc1cc(Nc2nccc(N3CCC[C@H](C(=O)NCc4ccc(C)c(C)c4)C3)n2)cc(OC)c1OC` [Example 83, (S)-N-(3,4-dimethylbenzyl)-1-(2-((3,4,5-trimethoxyphenyl)amino)-4-pyrimidinyl)-3-piperidinecarboxamide] here?
Its IC50 is 100 to 1000 nM.

`COc1cc(Nc2nccc(N3CCC[C@H](C(=O)NCc4cccc(OC(F)F)c4)C3)n2)cc(OC)c1OC` [Example 79, (S)-N-(3-(difluoromethoxy)benzyl)-1-(2-((3,4,5-trimethoxyphenyl)amino)-4-pyrimidinyl)-3-piperidinecarboxamide] was tested. Which IC50 did it give?
Its IC50 is under 50 nM.

Which IC50 does the source give for `COc1cc(Nc2nccc(N3CCC[C@H](C(=O)NCc4ccc(N(C)C)cc4)C3)n2)cc(OC)c1OC` [Example 42, (S)-N-(4-(dimethylamino)benzyl)-1-(2-((3,4,5-trimethoxyphenyl)amino)-4-pyrimidinyl)-3-piperidinecarboxamide] here?
The IC50 was 1000 to 5000 nM.

With `COc1cc(Nc2nccc(N3CCOC(C(=O)NCc4ccc(C)cc4)C3)n2)cc(OC)c1OC` (centres unmarked) [Example 5, N-(4-Methylbenzyl)-4-(2-(3,4,5-Trimethoxy-Phenylamino)Pyrimidin-4-Yl)Morpholine-2-Carboxamide] as the molecule, how does the IC50 read?
The IC50 was 1000 to 5000 nM.

`COc1cc(Nc2nccc(N3CCC[C@H](C(=O)NCc4cccc(Br)c4)C3)n2)cc(OC)c1OC` [Example 113, (S)-N-(3-bromobenzyl)-1-(2-((3,4,5-trimethoxyphenyl)amino)-4-pyrimidinyl)-3-piperidinecarboxamide] was tested. Which IC50 did it give?
The IC50 was under 50 nM.

Which IC50 does the source give for `COc1ccc(CNC(=O)[C@H]2CCCN(c3ccnc(Nc4cc(OC)c(OC)c(OC)c4)n3)C2)cc1OC` [Example 66, (S)-N-(3,4-dimethoxybenzyl)-1-(2-((3,4,5-trimethoxyphenyl)amino)-4-pyrimidinyl)-3-piperidinecarboxamide] here?
Its IC50 is 1000 to 5000 nM.

How did the IC50 turn out when `COc1cc(Nc2nccc(N3CCC[C@@H](C(=O)NCc4ccc(F)cc4)C3)n2)cc(OC)c1OC` [Example 19, (R)-N-(4-fluorobenzyl)-1-(2-((3,4,5-trimethoxyphenyl)amino)-4-pyrimidinyl)-3-piperidinecarboxamide] was run?
Its IC50 is 1000 to 5000 nM.

`COc1cc(Nc2ncc(Cl)c(N3CCC[C@H](C(=O)NCc4ccc(C)cc4)C3)n2)cc(OC)c1OC` [Example 10, (S)-1-(5-Chloro-2-(3,4,5-Trimethoxyphenyl-Amino)Pyrimidin-4-Yl)-N-(4-Methylbenzyl)Piperidine-3-Carboxamide] was tested. Which IC50 did it give?
The IC50 was 100 to 1000 nM.

For `Cc1ccc(CNC(=O)[C@H]2CCCN(c3ccnc(Nc4cccc(-c5ccccc5)c4)n3)C2)cc1` [Example 182, (3S)-1-(2-(3-biphenylylamino)-4-pyrimidinyl)-N-(4-methylbenzyl)-3-piperidinecarboxamide], which IC50 is on record?
Its IC50 is 100 to 1000 nM.

For `COc1ccccc1CNC(=O)[C@H]1CCCN(c2ccnc(Nc3cc(OC)c(OC)c(OC)c3)n2)C1` [Example 32, (S)-N-(2-methoxybenzyl)-1-(2-((3,4,5-trimethoxyphenyl)amino)-4-pyrimidinyl)-3-piperidinecarboxamide], which IC50 is on record?
The IC50 was 5000 to 10000 nM.

For `COc1ccc(CNC(=O)[C@H]2CCCN(c3ccnc(Nc4cc(OC)c(OC)c(OC)c4)n3)C2)cc1` [Example 15, (S)-N-((4-(methyloxy)phenyl)methyl)-1-(2-((3,4,5-tris(methyloxy)phenyl)amino)-4-pyrimidinyl)-3-piperidinecarboxamide], which IC50 is on record?
Its IC50 is 100 to 1000 nM.

`O=C(NCc1ccc(OC(F)(F)F)cc1)[C@H]1CCCN(c2ccnc(Nc3ccc(N4CCOCC4)cc3)n2)C1` [Example 3, (S)-1-(2-(4-Morpholinophenylamino)Pyrimidin-4-Yl)-N-(4-(Trifluoromethoxy)Benzyl)Piperidine-3-Carboxamide] was tested. Which IC50 did it give?
The IC50 was 100 to 1000 nM.

Which IC50 does the source give for `COc1cc(F)cc(Nc2nccc(N3CCC[C@H](C(=O)NCc4ccc(C)cc4)C3)n2)c1` [Example 169, (3S)-1-(2-((3-fluoro-5-methoxyphenyl)amino)-4-pyrimidinyl)-N-(4-methylbenzyl)-3-piperidinecarboxamide] here?
Its IC50 is 100 to 1000 nM.
